From US7618977B2, “Method of treating dermatitis comprising administering a chymase inhibitor” (Asubio Pharma Co., Ltd., priority 2000, dated 2009) come the findings set out here.

Assay [1] relates to dermatitis induced by repeated application of hapten. In words: Mouse dermatitis model induced by repeated application of hapten (DNFB), ear thickness. Type of assay: in vivo, C3H/HeN mice. As to conditions: for suppression of increase in ear thickness (skin reaction after hapten application): five days a week. The method, then:
Dermatitis was induced in accordance with an already reported method (J. Pharmacol. Exp. Ther. 283, 321, 1997) using dinitrofluorobenzene (DNFB) as hapten. That is, the right ears of eight-week old female C3H/HeN mice (Nippon Clare) (n=7) were painted with 0.15% DNFB (25 μl) dissolved in an acetone/olive oil (3:1) every seven days six times. When applying the hapten each time, the ear thickness was measured by a micrometer (Digimatic Indicator, Mitsutoyo Co.) immediately before the application and 1 hour, 6 hours, 24 hours, and 48 hours after the application so as to find the amount of increase from the ear thickness before the first application of hapten. Further, a group similarly treated with an acetone/olive oil solution (3:1) not containing DNFB was used as a control. Further, in a test separate from the above, the ears were cut off immediately before the third application of hapten, the chymase-like activity of the skin was measured in accordance with an already reported method (n=3), and this was compared with the activity of mice treated with an acetone/olive oil solution (3:1) not containing DNFB (n=2).
The effect of a test substance on dermatitis was investigated by inducing dermatitis in accordance with the method described in Example 9 (n=7) and measuring the ear thickness in the same way as in Example 9. As the test substance, three chymase inhibitors (Compound 18, Compound 34, and Compound 35) were used, while as the control, the steroid prednisolone (Nakarai Tesc Inc.) was used. Further, the test substance was suspended in saline containing 0.5% hydroxypropyl cellulose in the same way as in Example 3 (HPC/saline) and intraperitoneally administered in dosages of 10 mg/kg or 50 mg/kg once a day for five consecutive days a week until the end of the test; the first administration was performed immediately before the start of the hapten application. Further, a group similarly treated with DNFB and administered HPC/saline instead of the test substance was used as a control group.

Assay [2] relates to Ascaris-induced mouse biphasic dermatitis. In words: Ascaris-induced mouse biphasic dermatitis model, ear edema. In kind it is in vivo, BALB/c mice. The method, then: Ascaris-induced biphasic dermatitis was induced according to the method described previously (Folia Pharmacol. Jap. 112, 221, 1998). That is, 8-week old BALB/c mice (Charles River Japan) were sensitized by intraperitoneal injection of 0.5 ml of a 1:1 mixture of ascaris extract (800 μg/ml, Cosmo Bio Co., Ltd.) and an alum saline suspension (16 mg/ml in saline). Two weeks after the sensitization, 10 μl of ascaris extract (1 mg/ml) was injected intradermally to the right ear of mice. The edema induced at the ear were evaluated immediately before intradermal injection of the ascaris extract (n=3) and 1 hour after (n=4), 2 hours after (n=4), 4 hours after (n=4), 6 hours after (n=4), 16 hours after (n=4), and 24 hours after injection (n=4), by weighing ear biopsy prepared with a punch (a diameter of 6 mm, Fukui Kiko Shokai) and measuring their weights. The edema (mg) was expressed as the difference in the weight of the ear punch biopsy between the right and the left ears of the same mouse. Dermatitis was induced in accordance with the method described in Example 2 and the ear edema was measured in the same way as in Example 2, 1 hour (n=6) and 16 hours (n=8) after the intradermal administration of ascaris extract to the ears to investigate the effects of the test substance on dermatitis. As the chymase inhibitor, Compound 34 was used. As the control drug, diphenhydrazine (antihistamine, Sigma) and prednisolone (steroid, Nakarai Tesc Co.) were used. Each drug under study was suspended in saline containing 0.5% hydroxypropyl cellulose and administered intraperiotoneally 60 minutes before intradermal administration of ascaris extract. A group of mice sensitized with ascaris extract and challenged by intradermal injection of saline was used as a control (n=3).

A further assay has as its system eosinophils of the skin. In words: Increase in eosinophils of skin in hapten-induced mouse dermatitis model. In kind it is in vivo, C3H/HeN mice. The conditions noted are these: 48 hours after sixth application of hapten. As for the experimental part: The effect of a chymase inhibitor on the infiltration of eosinophils of the skin in the test of Example 10 was studied. That is, 48 hours after the sixth application of hapten, the ears of the mice were fixed with formalin and paraffin sections prepared in accordance with an ordinary method. The sections were stained with Fast Green (Fluka), known to specifically stain eosinophils (Current Protocol in Immunology, Wiley Interscience). That is, the deparaffined sections were fixed with 100% methanol for 1 minute, then stained for 30 minutes by 0.2% Fast Green dissolved in 70% ethanol. The eosinophils were measured by randomly selecting 10 fields (×400) under a microscope and counting the number of cells per area using an ocular grid. As the chymase inhibitor, the Compound 18 and Compound 34 were used and =administered by the method described in Example 10. Further, a group treated with an acetone/olive oil solution (3:1) not containing DNFB was used as the non-induced control group, while a group treated with DNFB and administered HPC/saline instead of the test substance was used as the control for the group administered the chymase inhibitor.

The next assay relates to natural onset dermatitis. In words: Natural onset dermatitis (NC/Nga) mice. Type of assay: in vivo. The conditions noted are these: 150 mg/kg/day in drinking water, 35 days. The source says: NC/Nga mice were bred and raised in accordance with the methods described in previous reports (Progress in Medicine 19, 1201, 1999). Specifically, 5-week old NC/Nga mice obtained from Charles River Japan and raised under a specific pathogen free (SPF) environment were mixed with NC/Nga mice bred by the Faculty of Applied Biological Science of Hiroshima University starting from 6 weeks of age, kept until 15 weeks of age in a normal non-SPF environment, then used for the tests. The tests were conducted under non-SPF, conventional environment. The test substance (Compound 18) was mixed with the drinking water and administered for 35 consecutive days at 150 mg/kg/day (n=7), then an evaluation was conducted in accordance with the method described in previous reports (Progress in Medicine 19, 1201, 1999). That is, first, 35 days after the start of administration, the five items of (1) scratching behavior, (2) edema, (3) erythema and hemorrhaging, (4) depilation and ulceration, and (5) dryness were scored as 0 to 2 and the total found to judge the outer appearance of the skin. Next, the ears and skin of the back were fixed with formalin, embedded in paraffin, and histologically analyzed by staining the ear specimens by the hematoxylin and Eosin method, Toluidine Blue method, or Congo Red method (Stain Technol. 56, 323, 1981) and by staining the back skin specimens by the Toluidine Blue method or Congo Red method. Sections of the ear stained with Hematoxylin and Eosin were evaluated by judging the change in tissue in four scales of 0 to 3 for three items of (1) thickness of epidermis, (2) thickness of dermis, and (3) cellular infiltration and expressing as the total score. Further, the specimens stained with Toluidine Blue and stained with Congo Red were used for counting the mast cells and eosinophils. Specifically, the eosinophils of the back skin were counted in a ×400 field of a microscope, while the other cells were counted in a total of five ×200 fields and the totals expressed.

A further assay relates to mast cells of skin. In words: Increase in number of mast cells of skin in hapten-induced mouse dermatitis model. The conditions noted are these: 48 hours after sixth application of hapten. Type of assay: in vivo, C3H/HeN mice. The method, then: The effect of a chymase inhibitor on the increase in mast cells of skin in the test of Example 10 was studied. In the same way as Example 11, the ears of the mice were fixed with formalin and paraffin sections prepared by an ordinary method 48 hours after the sixth application of hapten. The mast cells of the sections were stained by the Toluidine Blue method, then the number of mast cells were counted under a microscope (×400) for 10 fields per section. The density of mast cells of the skin was measured in accordance with the method of Kitagaki et al. (J. Invest. Dermatol. 105, 749, 1995). As the chymase inhibitor, use was made of Compound 18 and Compound 34. These were administered by the method described in Example 10. Further, a group treated with an acetone/olive oil solution (3:1) not containing DNFB was used as the non-induced control group, while a group treated with DNFB and administered HPC/saline instead of the test substance was used as the control for the group administered the chymase inhibitor.

For assay [3], the system named is human polymorphonuclear leukocytes (PMN). Put plainly: Human chymase-induced migration of polymorphonuclear leukocytes, 48-well chemotaxis chamber. The conditions noted are these: inhibitor in lower well, 1% dimethyl sulfoxide, 37° C. 1 hour. In kind it is cell-based. The method, then:
In Example 6, it was shown that a remarkable infiltration of leukocytes is observed in late-phase reaction of human chymase-induced dermatitis. The effect of human chymase on the migration of polymorphonuclear leukocytes (PMN) in vitro was investigated for the purpose of investigating the mechanism of chymase-induced leukocyte infiltration. PMN was isolated by adding a ⅕th volume of 6% dextran solution to heparinized whole blood from normal healthy subject and allowing it to stand at 37° C. for 1 hour, then layering the supernatent on Ficoll-Paque (Amersham Pharmacia Biotech) and centrifuging it. Further, the migration of PMN was measured by using a 48-well chemotaxis chamber (NeuroProbe Co.) by the textbook method (Seibutsu Yakkagaku Jikken Koza (Biopharmacology Experiment Lectures) 12, 315, Hirokawa Shoten). That is, a medium containing human chymase (200 to 800 nM) or fMLP (N-formyl-L-methionyl-L-leucyl-L-phenylalanine, Sigma-Aldrich Co.) (10 nM) was placed in the lower well of the chamber. The upper well and the lower well were separated by a polycarbonate filter (pore size 5 μm) (NeuroProbe Co.) PMN (1×10^6/ml) was added to the upper well and cultured at 37° C. for 1 hour, then the filter was fixed, stained and the number of cells in the membrane were counted under a microscope (400×) (Seibutsu Yakkagaku Jikken Koza (Biopharmacology Experiment Lectures) 12, 315). For the cell staining, a hemacolor solution (Merck) was used. In this test, when investigating the effect of the chymase inhibitor, a chymase inhibitor (Compound 18 or Compound 34) was dissolved in dimethyl sulfoxide and added to the lower well of the chamber just before the addition of the human chymase. The concentration of the compound was adjusted so that the final concentration of the dimethyl sulfoxide became 1%.

[4] abbreviates: 50 mg/kg intraperitoneal once a day, p<0.05 Dunnett's test.
Where [5] appears, read: 10 mg/kg intraperitoneal once a day.
[6] abbreviates: 50 mg/kg intraperitoneal, 60 minutes before ascaris extract, p<0.01.

Structures can show the parent of a compound that is named as a salt.

On to `C[C@]12C=CC(=O)C=C1CC[C@@H]1[C@@H]2[C@@H](O)C[C@@]2(C)[C@H]1CC[C@]2(O)C(=O)CO` [Prednisolone, prednisolone], for which the “suppression of dermatitis (ear thickness)” value in assay [1] (control drug, 10 mg/kg or 50 mg/kg intraperitoneal) was “suppressed dermatitis in this model in a dose-dependent manner”. Also, the “rate of suppression, late-phase reaction” value in assay [2] (30 mg/kg intraperitoneal, 16 hours after challenge) came to 67%. For the same compound, in assay [2] (control drug, intraperitoneal, 1 hour after challenge), the “effect against the early-phase reaction” value is reported as “substantially ineffective”.

On to `Cl.O=c1[nH]c2cc(Cl)ccc2c(=O)n1S(=O)(=O)c1ccc(-c2cc[nH]n2)cc1` [Compound 35, 7-chloro-3-[4-(pyrazol-3-yl)benzenesulfonyl]-2,4(1H,3H)-quinazolinedione Hydrochloride], for which the “suppression of increase in ear thickness (skin reaction after hapten application)” value (“suppression of increase in ear thickness” for short) in assay [1] (setting [4]) is “significantly suppressed”.

For the compound `Nc1cc(S(=O)(=O)n2c(=O)[nH]c3cc(Cl)ccc3c2=O)ccc1C(=O)O` [Compound 18, 4-[(7-chloro-2.4 (1H,3H)-quinazolinedion-3-yl)sulfonyl]anthranilic Acid Monosodium Salt], the “rate of suppression of increase in eosinophils” value was found to be 37.1% with eosinophils of the skin (10 mg/kg intraperitoneal) and 60.5% in the assay on eosinophils of the skin (50 mg/kg intraperitoneal). The “suppression of increase in ear thickness” value was “significant effect” in assay [1] (setting [5]) and “significantly suppressed” in assay [1] (setting [4]). In the assay with natural onset dermatitis, the “number of mast cells of ear skin and back skin” value was “significant suppressive effect”. Also, the “numbers of eosinophils of ear skin and back skin” value with natural onset dermatitis is recorded as “significantly suppressed”. Besides, the “histological score of the ears” value in the assay with natural onset dermatitis (p<0.05 Mann-Whitney) was “decreased significantly”. Moreover, the “dermatitis score (clinical skin score)” value with natural onset dermatitis (vs control group, p<0.05 Mann-Whitney) was “decreased significantly”. Also, the “rate of suppression of increase in density of mast cells” value is reported as “about 57%” with mast cells of skin (10 mg/kg intraperitoneal) and “about 64%” with mast cells of skin (50 mg/kg intraperitoneal). In addition, the “suppression of human chymase-promoted migration of human PMN” value in assay [3] is “significantly suppressed”.

Turning to `CS(=O)(=O)O.Nc1cccc(S(=O)(=O)n2c(=O)[nH]c3cc(Cl)ccc3c2=O)c1` [Compound 34, 3-(3-aminobenzenesulfonyl)-7-chloro-2,4-(1H,3H)quinazolinedion Methanesulfonic Acid Salt], in the assay on eosinophils of the skin (10 and 50 mg/kg intraperitoneal), the “effect on increase in eosinophils” value is recorded as “no statistically significant difference”. The “suppression of increase in ear thickness” value is given as “significant suppressive effect” in assay [1] (setting [5]) and “significantly suppressed” in assay [1] (setting [4]). In addition, in assay [2] (setting [6]), the “rate of suppression, early-phase reaction (ear edema after 1 hour)” value is on record as “about 41%”. Moreover, the “rate of suppression, late-phase reaction (ear edema after 16 hours)” value in assay [2] (setting [6]) was “about 45%”. Also, the “rate of suppression of increase in density of mast cells” value in the assay on mast cells of skin (10 mg/kg intraperitoneal) was “about 37%”; with mast cells of skin (50 mg/kg intraperitoneal), “about 51%”. The “suppression of human chymase-promoted migration of human PMN” value in assay [3] is “significantly suppressed”.

For `CN(C)CCOC(c1ccccc1)c1ccccc1` [diphenhydrazine], the “rate of suppression, early-phase reaction” value in assay [2] (control drug, intraperitoneal, dose not given, 1 hour after challenge) was 79%. Also, the “effect against the late-phase reaction” value in assay [2] (control drug, intraperitoneal, dose not given, 16 hours after challenge) is “almost no effect”.
